“And” between values parts separate entries of the source, which are not always exact repeats. Identical values can stand only once. Values belong to the compound of their own block, whether it stands above or below them.
Legend:
[1] = test system: NEDD4-1; set-up: method as in PMID 27979631; details: cited from earlier work
[2] = target: T1, WWP2 (GST-tagged WWP2-FL) (Homo sapiens, UniProt O00308); test: in vitro autoubiquitination assay (single shot and dose dependency), WWP2; format: biochemical; details: for inhibition of WWP2 (in words): autoubiquitination assay; for WWP2 RA (%) relative activity: single shot, compound at 1 mM (1% DMSO), standardized to 0 and 100% controls; for IC50: nonlinear regression of RA against log concentration, 1 mM to 10 nM, 1% DMSO
T1 construct: Full- length WWP2 (WWP2-FL); made in house; host or cells: E. coli BL21-CodonPlus RP (plasmid pGEX2T-WWP2-FL, Dr Andrew Chantry's Lab)
T1 sequence (O00308 whole entry): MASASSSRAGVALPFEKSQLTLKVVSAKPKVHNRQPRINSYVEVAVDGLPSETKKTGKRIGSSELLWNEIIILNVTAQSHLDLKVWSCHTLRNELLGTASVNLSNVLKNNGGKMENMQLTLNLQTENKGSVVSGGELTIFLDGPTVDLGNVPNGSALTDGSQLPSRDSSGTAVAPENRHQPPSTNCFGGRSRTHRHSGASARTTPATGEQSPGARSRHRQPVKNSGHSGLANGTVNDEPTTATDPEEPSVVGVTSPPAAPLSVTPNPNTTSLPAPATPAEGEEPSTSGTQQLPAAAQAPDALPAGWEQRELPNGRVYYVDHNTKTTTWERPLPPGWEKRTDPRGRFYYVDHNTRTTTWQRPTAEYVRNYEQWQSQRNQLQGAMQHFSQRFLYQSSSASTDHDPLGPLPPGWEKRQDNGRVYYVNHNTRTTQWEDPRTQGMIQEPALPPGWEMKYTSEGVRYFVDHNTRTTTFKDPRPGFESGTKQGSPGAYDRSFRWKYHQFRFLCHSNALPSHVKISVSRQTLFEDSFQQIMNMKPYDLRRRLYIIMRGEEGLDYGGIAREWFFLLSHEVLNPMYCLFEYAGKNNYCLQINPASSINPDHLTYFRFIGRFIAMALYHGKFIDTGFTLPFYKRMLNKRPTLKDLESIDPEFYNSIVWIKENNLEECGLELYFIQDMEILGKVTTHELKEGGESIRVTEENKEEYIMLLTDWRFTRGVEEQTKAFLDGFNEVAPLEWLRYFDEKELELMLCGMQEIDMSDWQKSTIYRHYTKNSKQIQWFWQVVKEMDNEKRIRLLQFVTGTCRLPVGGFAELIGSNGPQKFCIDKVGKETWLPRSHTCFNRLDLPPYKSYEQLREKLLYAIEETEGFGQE
Protocol: (§1) A single shot in vitro autoubiquitination assay was performed for I3C, DIM and each of the derivatives against WWP1 and WWP2 using a compound concentration of 1 mM (1% DMSO) (SI Figure S3). […] These active compounds were then subjected to a detailed dose dependency analysis leading to IC50 values. This strategy has previously been employed to screen other WWP1/WWP2 small molecule inhibitors as well as used to assess I3C inhibition toward NEDD4-1.[29],[32] In this way, compounds displaying a relative activity (RA) of less than 50% in the single shot assay were further screened for dose-dependency using a logarithmic concentration range from 10 nM to 1 mM (1% DMSO) (SI Figure S4). […] These were confirmed by counter assays to remove compounds possibly interacting with other enzymes in the assay or interfering with the assay directly (SI Table S1).
(§2) Cell lysate containing His-tagged WWP1-L34H or GST-tagged WWP2-FL proteins were incubated on either 96-well Clear Pierce glutathione or nickel-coated plates for 1 h. Reaction mixtures of either 3 ng/well GST-Uba1 and 15 ng/well UbcH7 or 10 ng/well His-Uba1 and 150 ng/well His-UbcH7 were incubated together in 25 mM Tris pH 8.0, 100 mM NaCl, 4 mM MgCl2 containing 60 ng/well FLAG-ubiquitin and 1.25 mM ATP for 40 min. A prior 1% BSA plate blocking step is required for nickel-coated plates. After plate washing, 2 μL of the compound was added at the desired concentration (1% DMSO) followed by 18 μL of the reaction mixture. This was then incubated for 2 h with 0 and 100% controls before 100 μL of anti-FLAG M2-Peroxidase HRP (1:10,000 PBST) was added to each well and incubated for 1 h. Finally, 100 μL of 1 × TMB substrate solution (Invitrogen) was added to each well and incubated for up to 10 min until sufficient blue color change was observed. To stop the reaction, 100 μL of 1 M HCl was added. For the counter assay, 3 ng/well GST-Uba1 and 200 ng/well UbcH7 were incubated with the other reaction mixture components for 1 h before incubating onto plates for a further 1 h. All other steps were followed. The plates were washed three times with PBST (and 15 mM Imidazole) between each step. Quantification was measured by absorbance read at 450 nm. All assay optimizations were as previously reported.[32] IC50 nonlinear regression curves were calculated in GraphPad v10.2 (Prism). […]
(§3) Auto-ubiquitination Assay
(§4) Cell lysate containing His-tagged WWP1-L34H or GST-tagged WWP2-FL proteins were incubated on either 96-well Clear Pierce glutathione 2 or nickel-coated plates for 1 hour. Reaction mixtures of either 3 ng/well GST-Uba1 and 15 ng/well UbcH7 or 10 ng/well His-Uba1 and 150 ng/well His-UbcH7 were incubated together in 25 mM Tris pH 8.0, 100 mM NaCl, 4 mM MgCl2 containing 60 ng/well FLAG-ubiquitin and 1.25 mM ATP for 40 minutes. A prior 1 % BSA plate blocking step is required for nickel-coated plates. After plate washing, 2 μL of the compound was added at the desired concentration (1 % DMSO) followed by 18 μL of the reaction mixture. This was then incubated for 2 hours with 0% and 100% controls before 100 μL of anti-FLAG M2-Peroxidase HRP (1: 10,000 PBST) was added to each well and incubated for 1 hour.
(§5) Finally, 100 μL of 1 × TMB substrate solution (Invitrogen) was added to each well and […]
(§6) incubated for up to 10 minutes until sufficient blue colour change was observed. To stop the reaction, 100 μL of 1 M HCl was added. For the counter assay, 3 ng/well GST-Uba1 and 200 ng/well UbcH7 were incubated with the other reaction mixture components for 1 hour before incubating onto plates for a further 1 hour. All other steps were followed.
(§7) The plates were washed three times with PBST (and 15 mM Imidazole) between each step. Quantification was measured by absorbance read at 450 nm. All assay optimisations have been previously reported by Watt and colleagues3.
(§8) Relative activity (RA) was determined by comparing the autoubiquitination of the WWP ligases in the presence of each compound, i.e TMB absorbance (450 nm), to the […]

[3] = target: T2, WWP1 (His-tagged WWP1-L34H) (Homo sapiens, UniProt Q9H0M0); test: in vitro autoubiquitination assay (single shot and dose dependency), WWP1; format: biochemical; details: for inhibition of WWP1 (in words): autoubiquitination assay; for WWP1 RA (%) relative activity: single shot, compound at 1 mM (1% DMSO), standardized to 0 and 100% controls; for IC50: nonlinear regression of RA against log concentration, 1 mM to 10 nM, 1% DMSO
T2 construct: WWP1- 2,3-linker-WW3-WW4-HECT (WWP1-L34H); made in house; host or cells: E. coli BL21-CodonPlus RP (plasmid pET32a-WWP1-L34H, gift of Dr Wenyu Wen)
T2 sequence (Q9H0M0 415-922, stated change not applied): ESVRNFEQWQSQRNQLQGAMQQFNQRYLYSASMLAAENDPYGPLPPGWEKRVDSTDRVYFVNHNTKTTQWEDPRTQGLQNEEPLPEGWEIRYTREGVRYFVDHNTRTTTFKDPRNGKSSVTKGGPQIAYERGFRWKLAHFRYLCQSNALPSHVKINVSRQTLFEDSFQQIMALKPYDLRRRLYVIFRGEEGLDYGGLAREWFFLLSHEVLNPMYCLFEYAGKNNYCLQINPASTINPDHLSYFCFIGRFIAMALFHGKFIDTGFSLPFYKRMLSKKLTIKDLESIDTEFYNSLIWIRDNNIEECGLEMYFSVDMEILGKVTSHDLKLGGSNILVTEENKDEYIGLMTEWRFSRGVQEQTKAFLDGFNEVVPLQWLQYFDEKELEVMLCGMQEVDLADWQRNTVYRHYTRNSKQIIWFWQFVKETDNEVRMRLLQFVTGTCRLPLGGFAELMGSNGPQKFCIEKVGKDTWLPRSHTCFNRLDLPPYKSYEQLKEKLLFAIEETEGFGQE
Protocol: as §1, §2, §3, §4, §5, §6, §7, §8

[4] = target: T3, UbcH7 (Homo sapiens, UniProt P68036); test: counter auto-ubiquitination screen; format: biochemical; details: counter assay, GST-Uba1 and UbcH7 without E3
T3 construct: GST (N, cleaved yes); made in house; host or cells: E. coli BL21 (DE3) (pGEX4T-1-UbcH7a and pGEX4T-1-hUba1, gifts of Dr Arthur L Haas's Lab)
T3 sequence (P68036 whole entry): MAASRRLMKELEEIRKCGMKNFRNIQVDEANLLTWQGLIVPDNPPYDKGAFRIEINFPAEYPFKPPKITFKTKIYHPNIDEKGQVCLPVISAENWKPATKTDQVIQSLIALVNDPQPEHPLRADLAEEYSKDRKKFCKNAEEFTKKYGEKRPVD
Protocol: as §1
Cell lysate containing His-tagged WWP1-L34H or GST-tagged WWP2-FL proteins were incubated on either 96-well Clear Pierce glutathione or nickel-coated plates for 1 h. Reaction mixtures of either 3 ng/well GST-Uba1 and 15 ng/well UbcH7 or 10 ng/well His-Uba1 and 150 ng/well His-UbcH7 were incubated together in 25 mM Tris pH 8.0, 100 mM NaCl, 4 mM MgCl2 containing 60 ng/well FLAG-ubiquitin and 1.25 mM ATP for 40 min. A prior 1% BSA plate blocking step is required for nickel-coated plates. […] Quantification was measured by absorbance read at 450 nm. […] IC50 nonlinear regression curves were calculated in GraphPad v10.2 (Prism). […]
The plates were washed three times with PBST (and 15 mM Imidazole) between each step. Quantification was measured by absorbance read at 450 nm. […]
Relative activity (RA) was determined by comparing the autoubiquitination of the WWP ligases in the presence of each compound, i.e TMB absorbance (450 nm), to the 100 % controls (1 % DMSO only), further normalising against background absorbance using 0 % controls (no E3 loaded). […]
IC50 non-linear regression curves were calculated in GraphPad v10.2 (Prism). […]

[5] = target: WWP1 (Homo sapiens, UniProt Q9H0M0); set-up: method as in PMID 31097636, doi:10.1016/j.phytol.2023.01.002; details: cited from earlier work
WWP1, sequence (Q9H0M0 546-922 limits assumed): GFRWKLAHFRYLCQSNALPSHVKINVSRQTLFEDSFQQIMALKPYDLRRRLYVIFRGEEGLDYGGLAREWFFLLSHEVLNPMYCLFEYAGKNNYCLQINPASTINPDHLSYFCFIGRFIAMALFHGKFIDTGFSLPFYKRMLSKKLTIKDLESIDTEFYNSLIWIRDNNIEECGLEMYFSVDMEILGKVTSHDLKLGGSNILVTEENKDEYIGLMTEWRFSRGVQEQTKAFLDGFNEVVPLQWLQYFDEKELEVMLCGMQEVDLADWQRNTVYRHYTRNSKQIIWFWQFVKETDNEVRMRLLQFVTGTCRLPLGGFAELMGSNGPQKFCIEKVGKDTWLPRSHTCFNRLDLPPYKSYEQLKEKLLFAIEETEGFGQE

[6] = set-up: method as in PMID 17699787; details: cited from earlier work

SMILES: OCc1cn(Cc2ccccc2)c2ccccc12 [Compound 13, N-benzylindole-3-carbinol]
IC50 [1]: 12.3 µM
inhibition of WWP2 (in words) [2]: no evidence of inhibition
WWP2 RA (%) relative activity [2]: 97.6%
inhibition of WWP1 (in words) [3]: no evidence of inhibition
WWP1 RA (%) relative activity [3]: 105.9%

SMILES: CCc1ccc(C=CC(=O)Nc2ccc(C(C)=O)cc2)o1 [Heclin]
IC50 [5]: 6.9 µM

SMILES: O=[N+]([O-])c1cc(S(=O)(=O)n2cc(CO)c3ccccc32)ccc1Cl [OSU-A9]
increase in antiproliferative properties relative to I3C [6]: 100 fold

Continued, values first:

inhibition of WWP2 (in words) [2]: displayed inhibition
IC50 [2]: 224 µM
WWP2 RA (%) relative activity [2]: 39.2%
inhibition of WWP1 (in words) [3]: displayed inhibition
IC50 [3]: 218 µM
WWP1 RA (%) relative activity [3]: 11.4%
UbcH7 Activity (%) [4]: 86.3 ± 1.8%
SMILES: Cc1ccc(S(=O)(=O)n2cc(CO)c3ccccc32)cc1 [Compound 15, N-(4-methylbenzenesulfonyl)indole-3-carbinol]

inhibition of WWP2 (in words) [2]: displayed inhibition
IC50 [2]: 642 µM
WWP2 RA (%) relative activity [2]: 30.0%
inhibition of WWP1 (in words) [3]: displayed inhibition
IC50 [3]: 799 µM
WWP1 RA (%) relative activity [3]: 22.5%
UbcH7 Activity (%) [4]: 79.7 ± 1.5%
SMILES: O=S(=O)(c1ccc(C(F)(F)F)cc1)n1cc(CO)c2ccccc21 [Compound 16, N-(4-trifluoromethylbenzenesulfonyl)indole-3-carbinol]

WWP2 RA (%) relative activity [2]: 62.2 ± 6.1% and 62.2%
inhibition of WWP1 (in words) [3]: displayed inhibition
IC50 [3]: 111 µM
WWP1 RA (%) relative activity [3]: 17.2%
UbcH7 Activity (%) [4]: 83.3 ± 2.0%
SMILES: c1ccc2c(Cc3c[nH]c4ccccc34)c[nH]c2c1 [DIM, 3,3′-diindolylmethane]

— PMC11840788, “3,3′-Diindolylmethane (DIM): A Molecular Scaffold for Inhibition of WWP1 and WWP2, Members of the NEDD4 Family HECT E3 Ligases” (ACS Omega, 2025)
